Source: ChEMBL document CHEMBL6087456 (J Med Chem, 2025)
Values after ≈ are worked out from the molar mass of the structure shown.

How the values were obtained:
[1] = biological target: Dihydroorotate dehydrogenase (quinone), mitochondrial (Homo sapiens, UniProt Q02127); experiment: Inhibition of C-terminal His6-tagged recombinant human DHODH (29 to 395 residues) N-terminally truncated soluble domain extracted from Escherichia coli phage resistant BL21-DE3 using CoQD/DHA/DCIP as substrates
[2] = Selectivity index, ratio of IC50 for N-terminal His6-tagged recombinant Plasmodium falciparum DHODH (158 to 569 residues) N-terminally truncated soluble domain extracted from Escherichia coli phage resistant BL21-DE3 to IC50 for C-terminal His6-tagged recombinant Plasmodium vivax DHODH (158 to …
[3] = biological target: T1, Dihydroorotate dehydrogenase (quinone), mitochondrial (Plasmodium falciparum (isolate 3D7), UniProt Q08210); experiment: Inhibition of N-terminal His6-tagged recombinant Plasmodium falciparum DHODH (158 to 569 residues) N-terminally truncated soluble domain extracted from Escherichia coli phage resistant BL21-DE3 using CoQD/DHA/DCIP as substrates
T1 sequence (Q08210 whole entry): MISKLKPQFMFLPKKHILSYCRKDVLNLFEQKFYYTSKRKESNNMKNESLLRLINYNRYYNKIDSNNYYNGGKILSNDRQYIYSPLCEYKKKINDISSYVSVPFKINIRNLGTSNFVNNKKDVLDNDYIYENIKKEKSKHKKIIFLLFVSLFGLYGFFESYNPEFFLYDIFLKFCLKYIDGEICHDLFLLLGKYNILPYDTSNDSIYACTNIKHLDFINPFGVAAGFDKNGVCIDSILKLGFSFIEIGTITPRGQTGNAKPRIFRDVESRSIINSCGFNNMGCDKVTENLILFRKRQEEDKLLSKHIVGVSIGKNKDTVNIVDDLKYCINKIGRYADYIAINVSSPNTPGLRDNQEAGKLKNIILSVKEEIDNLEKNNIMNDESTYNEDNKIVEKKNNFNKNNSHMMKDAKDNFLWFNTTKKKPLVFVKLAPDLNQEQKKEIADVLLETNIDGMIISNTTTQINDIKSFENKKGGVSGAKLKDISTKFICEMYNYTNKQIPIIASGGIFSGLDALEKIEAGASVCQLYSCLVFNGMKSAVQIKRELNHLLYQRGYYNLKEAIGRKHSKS

Plasmodium falciparum = experiment: Antiparasitic activity against asexual blood stage Plasmodium falciparum 3D7 incubated for 72 hrs by SYBR Green assay; format: functional, organism-based; details: 3D7, 72 h
[4] = Oral absorption in overnight-fasted male Sprague-Dawley rat at 3 mg/kg measured upto 72 hrs by LCMS analysis; format: ADME, organism-based; details: in vivo
[5] = Half life in overnight-fasted male Sprague-Dawley rat at 3 mg/kg, po or 1 mg/kg, iv measured upto 72 hrs by LCMS analysis; format: ADME, organism-based; details: in vivo
Albumin = Albumin (Homo sapiens, UniProt P02768); experiment: Protein binding to albumin (unknown origin) in ALBUMAX medium; format: ADME; details: read-out: PB (converted)
Chain of Albumin (P02768 whole entry): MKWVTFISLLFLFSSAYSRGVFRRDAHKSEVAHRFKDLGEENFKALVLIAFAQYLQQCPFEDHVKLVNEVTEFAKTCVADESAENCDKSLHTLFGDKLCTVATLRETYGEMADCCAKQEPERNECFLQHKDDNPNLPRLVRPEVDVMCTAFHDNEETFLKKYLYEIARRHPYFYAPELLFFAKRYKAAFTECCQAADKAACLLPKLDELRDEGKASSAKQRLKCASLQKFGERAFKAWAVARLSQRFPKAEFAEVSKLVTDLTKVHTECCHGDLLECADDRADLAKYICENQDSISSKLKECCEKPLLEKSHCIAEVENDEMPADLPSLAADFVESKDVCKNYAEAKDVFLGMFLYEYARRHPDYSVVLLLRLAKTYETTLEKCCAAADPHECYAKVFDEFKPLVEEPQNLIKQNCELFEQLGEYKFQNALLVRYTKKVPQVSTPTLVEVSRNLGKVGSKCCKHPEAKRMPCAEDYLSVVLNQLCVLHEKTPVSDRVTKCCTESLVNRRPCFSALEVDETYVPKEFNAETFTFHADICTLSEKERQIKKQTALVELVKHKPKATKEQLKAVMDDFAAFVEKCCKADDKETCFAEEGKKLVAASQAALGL

[6] = Plasma protein binding in rat measured for 6 hrs by rapid equilibrium dialysis; format: ADME, cell-free
Cytochrome P450 2D6 = Cytochrome P450 2D6 (Homo sapiens, UniProt P10635); experiment: Inhibition of CYP2D6 in human liver microsomes; format: ADME, Microsome
Chain of Cytochrome P450 2D6 (P10635 whole entry): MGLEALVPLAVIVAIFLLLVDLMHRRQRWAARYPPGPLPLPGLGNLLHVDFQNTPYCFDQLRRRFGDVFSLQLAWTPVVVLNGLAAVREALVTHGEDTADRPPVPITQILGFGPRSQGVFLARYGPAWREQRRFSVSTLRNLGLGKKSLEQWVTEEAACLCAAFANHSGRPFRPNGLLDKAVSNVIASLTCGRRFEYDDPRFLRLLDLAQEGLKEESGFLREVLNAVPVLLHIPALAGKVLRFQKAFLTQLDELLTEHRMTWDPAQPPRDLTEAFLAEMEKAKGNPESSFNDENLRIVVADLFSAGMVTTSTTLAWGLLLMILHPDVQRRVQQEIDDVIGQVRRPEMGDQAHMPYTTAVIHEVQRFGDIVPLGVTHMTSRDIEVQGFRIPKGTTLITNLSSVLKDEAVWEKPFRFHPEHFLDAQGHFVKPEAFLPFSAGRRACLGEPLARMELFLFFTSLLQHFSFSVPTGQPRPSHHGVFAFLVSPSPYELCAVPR

[7] = Oral bioavailability in overnight-fasted male Sprague-Dawley rat at 3 mg/kg measured upto 72 hrs by LCMS analysis; format: ADME, organism-based; details: in vivo
[8] = Cytotoxicity against human Jurkat cells by Cell Titer Glo assay; format: toxicity, cell-based
Cytochrome P450 2B6 = biological target: T2, Cytochrome P450 2B6 (Homo sapiens, UniProt P20813); experiment: Inhibition of CYP2B6 in human liver microsomes; format: ADME, Microsome
T2 sequence (P20813 whole entry): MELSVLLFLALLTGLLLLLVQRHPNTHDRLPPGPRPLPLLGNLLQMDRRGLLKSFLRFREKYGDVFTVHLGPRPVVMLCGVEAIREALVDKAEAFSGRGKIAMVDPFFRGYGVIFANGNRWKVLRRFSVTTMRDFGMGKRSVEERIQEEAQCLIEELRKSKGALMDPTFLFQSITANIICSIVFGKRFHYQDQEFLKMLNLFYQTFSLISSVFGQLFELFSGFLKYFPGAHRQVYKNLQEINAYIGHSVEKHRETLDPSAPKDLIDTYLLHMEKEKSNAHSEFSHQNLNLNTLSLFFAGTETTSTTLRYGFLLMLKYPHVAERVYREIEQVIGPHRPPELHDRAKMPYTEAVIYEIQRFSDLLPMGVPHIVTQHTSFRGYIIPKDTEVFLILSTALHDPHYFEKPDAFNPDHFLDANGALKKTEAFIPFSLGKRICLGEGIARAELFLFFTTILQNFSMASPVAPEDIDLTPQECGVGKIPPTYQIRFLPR

[9] = Metabolic stability in human liver microsomes assessed as intrinsic clearance at 0.5 uM incubated for 60 mins in presence of NADPH by tandem quadrupole-Time of Flight MS; format: ADME, Microsome; details: 1 h
Cytochrome P450 3A4 = Cytochrome P450 3A4 (Homo sapiens, UniProt P08684); experiment: Inhibition of CYP3A4 in human liver microsomes; format: ADME, Microsome
Chain of Cytochrome P450 3A4 (P08684 whole entry): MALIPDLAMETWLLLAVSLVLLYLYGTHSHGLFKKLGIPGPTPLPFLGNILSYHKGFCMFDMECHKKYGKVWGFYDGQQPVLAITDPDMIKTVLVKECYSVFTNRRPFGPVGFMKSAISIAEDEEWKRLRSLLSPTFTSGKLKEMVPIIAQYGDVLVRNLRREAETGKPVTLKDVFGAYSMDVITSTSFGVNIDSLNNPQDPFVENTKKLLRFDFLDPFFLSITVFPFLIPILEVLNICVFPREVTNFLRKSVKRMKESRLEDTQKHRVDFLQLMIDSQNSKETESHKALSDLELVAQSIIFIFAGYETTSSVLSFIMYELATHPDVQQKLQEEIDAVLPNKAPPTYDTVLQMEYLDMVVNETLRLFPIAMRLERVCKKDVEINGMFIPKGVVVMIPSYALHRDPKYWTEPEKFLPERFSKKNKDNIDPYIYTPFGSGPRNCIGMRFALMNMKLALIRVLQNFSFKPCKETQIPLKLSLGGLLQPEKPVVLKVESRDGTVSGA

[10] = Protein binding in human hepatocytes; format: ADME, cell-based, Hepatocyte; details: read-out: PB (converted)
[11] = Kinetic solubility of compound at pH 6.5 measured after 30 mins by nephelometry; format: physicochemical; details: buffer; for solubility kinetic at 0.5 h: pH 6.5, read-out: Kinetic_solubility
Cytochrome P450 1A2 = biological target: T3, Cytochrome P450 1A2 (Homo sapiens, UniProt P05177); experiment: Inhibition of CYP1A2 in human liver microsomes; format: ADME, Microsome
T3 sequence (P05177 whole entry): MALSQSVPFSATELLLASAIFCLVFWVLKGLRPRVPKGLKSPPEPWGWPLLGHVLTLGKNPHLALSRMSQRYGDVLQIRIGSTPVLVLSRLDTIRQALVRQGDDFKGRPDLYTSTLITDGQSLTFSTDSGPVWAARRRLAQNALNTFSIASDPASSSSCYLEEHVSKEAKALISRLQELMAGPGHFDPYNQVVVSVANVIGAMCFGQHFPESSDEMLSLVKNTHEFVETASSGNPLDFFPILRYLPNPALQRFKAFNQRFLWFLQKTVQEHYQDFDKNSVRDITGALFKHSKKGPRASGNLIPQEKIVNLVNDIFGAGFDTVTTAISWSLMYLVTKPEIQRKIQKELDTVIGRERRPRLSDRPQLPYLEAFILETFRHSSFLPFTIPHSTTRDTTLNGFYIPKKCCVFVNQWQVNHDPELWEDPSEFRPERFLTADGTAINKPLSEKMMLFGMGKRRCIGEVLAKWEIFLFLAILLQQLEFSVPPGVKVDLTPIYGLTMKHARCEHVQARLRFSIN

[12] = Cytotoxicity against human HepG2 cells by Cell Titer Glo assay; format: toxicity, cell-based
[13] = Plasma protein binding in human measured for 6 hrs by rapid equilibrium dialysis; format: ADME, cell-free
[14] = Drug excretion in Sprague-Dawley rat urine at 1 mg/kg, iv; format: ADME, organism-based; details: read-out: Drug excretion
[15] = Permeability across apical to basal side in human Caco-2 cells; format: ADME, cell-based
[16] = Volume of distribution at steady state in overnight-fasted male Sprague-Dawley rat at 3 mg/kg, po or 1 mg/kg, iv measured upto 72 hrs by LCMS analysis; format: ADME, organism-based; details: in vivo
[17] = Partition coefficient, log D of compound at pH 7.4 measured after 24 hrs by LCMS analysis; format: physicochemical; details: octanol/water, pH 7.4, 24 h
[18] = Half life in human; format: ADME
[19] = Ratio of drug concentration in Sprague-Dawley rat brain to plasma at 1 uM measured for 5 to 60 mins by LCMS analysis; format: ADME, cell-free; details: time 5-60 min

Chain of Dihydroorotate dehydrogenase (quinone), mitochondrial (Homo sapiens, UniProt Q02127) (Q02127 whole entry, the tested form may be a part): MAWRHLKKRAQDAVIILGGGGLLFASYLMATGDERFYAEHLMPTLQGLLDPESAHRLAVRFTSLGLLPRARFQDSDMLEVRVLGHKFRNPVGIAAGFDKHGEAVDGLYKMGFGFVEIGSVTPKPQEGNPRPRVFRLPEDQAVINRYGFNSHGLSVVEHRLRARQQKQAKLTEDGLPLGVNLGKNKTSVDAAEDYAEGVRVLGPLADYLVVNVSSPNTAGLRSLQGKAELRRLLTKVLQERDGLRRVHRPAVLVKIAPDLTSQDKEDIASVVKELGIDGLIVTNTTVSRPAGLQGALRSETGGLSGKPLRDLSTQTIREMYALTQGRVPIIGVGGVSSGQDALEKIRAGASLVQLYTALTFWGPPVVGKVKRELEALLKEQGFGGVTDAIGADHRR

| IC50 [1] [nM] | EC50 (Plasmodium falciparum) [nM] | Fa at 72 h [4] [%] | fraction unbound (Albumin) | PPB [6] [%] | intrinsic clearance (CLint) [9] [µL/min/mg] | solubility kinetic at 0.5 h [11] [µM] | PPB [13] [%] | BPR [19] | Structure (SMILES) | further results |
| --- | --- | --- | --- | --- | --- | --- | --- | --- | --- | --- |
|  |  | 15 | 0.499 |  |  |  |  |  | Cc1nn(C2CC2)c(=O)c2nn(C)c(Cc3ccc(C(F)(F)F)c(C#N)c3)c12 | t1/2 [5]: 31 h |
| > 30000 | 3 | 94 | 0.319 | 97.3 | < 3 | 20 (≈ 9.36 µg/mL) | 99.1 |  | Cn1nc2c(=O)n(C3CC3)ncc2c1[C@](O)(c1cnc(C(F)(F)F)c(Cl)c1)C(F)(F)F | IC50 (Cytochrome P450 2D6): > 20000 nM; F [7]: > 100%; CC50 [8]: > 20000 nM; IC50 (Cytochrome P450 2B6): > 20000 nM; IC50 (Cytochrome P450 3A4): > 20000 nM; fraction unbound [10]: 0.342; IC50 (Cytochrome P450 1A2): > 20000 nM; t1/2 [5]: 23 h; CC50 [12]: > 20000 nM; dose excreted [14]: < 1%; permeability [15]: Permeable |
|  | 1 | 67 | 0.511 | 89.4 | < 3 | 40 (≈ 17.1 µg/mL) | 94 |  | CC[C@@](O)(c1cnc(C(F)(F)F)c(Cl)c1)c1c2ccn(C3CC3)c(=O)c2nn1C | Vdss [16]: 1.22 L/kg; logD [17]: 2.4; fraction unbound [10]: 0.676 |
|  |  |  |  |  |  |  |  |  | Cc1c(C2(c3ccc(C(F)(F)F)nc3)CC2)c[nH]c1C(=O)N[C@H](C)c1nc[nH]n1 | half-life [18]: > 100 h |
| > 100000 | 2 |  |  | 64 | 3.2 | 40 (≈ 17.1 µg/mL) | 70.4 | 0.84 | CCn1ccc2c([C@](O)(c3cnc(C(F)(F)F)c(Cl)c3)C3CC3)n(C)nc2c1=O |  |
| 72000 | 14 | 100 | 0.558 |  | 14 | 70 (≈ 26 µg/mL) |  | 0.72 | CCn1cc(Cl)c2c(Cc3ccc(C(F)(F)F)nc3)n(C)nc2c1=O |  |

| Structure (SMILES) | IC50 [1] [nM] | EC50 (Plasmodium falciparum) [nM] | Fa at 72 h [4] [%] | fraction unbound (Albumin) | PPB [6] [%] | intrinsic clearance (CLint) [9] [µL/min/mg] | solubility kinetic at 0.5 h [11] [µM] | PPB [13] [%] | BPR [19] | further results |
| --- | --- | --- | --- | --- | --- | --- | --- | --- | --- | --- |
| CCOC(=O)c1nn(C)c(Cc2ccc(C(F)(F)F)nc2)c1C | > 100000 | 190 |  |  |  |  |  |  |  | Ratio IC50 [2]: 4; IC50 [3]: 360 nM |
| CCn1cc(C)c2c([C@H](N)c3ccc(C(F)(F)F)nc3)n(C)nc2c1=O | > 100000 | 70 |  |  |  | < 3 |  |  | 1.1 | IC50 [3]: 280 nM; logD [17]: 1.82; Kinetic_solubility ([11]; pH 6.5, 0.5 h): > 320 µM |
